# Biological target: T1, 5-HT4 receptors (Rattus norvegicus, UniProt Q62758)
# T1 construct: The remaining inner tube of smooth muscle was known as the TMM; from tissue; host or cells: rat oesophagus tunica muscularis mucosae (TMM), male SD rats (Charles River)
# Assay: Functional assay: rat oesophagus TMM relaxation
# Conditions: carbachol-contracted rat oesophagus TMM, 1 μM antagonist
# Excerpt: More specifically, partial agonist activity can be measured according to the following procedures.
# Male SD rats (Charles River) weighing 250-350 g were stunned and then killed by cervical dislocation. The oesophagus was dissected from immediately proximal to the stomach (including piece of stomach to mark distal end) up to the level of the trachea and then placed in fresh Krebs' solution.
# The outer skeletal muscle layer was removed in one go by peeling it away from the underlying smooth muscle layer using forceps (stomach to tracheal direction). The remaining inner tube of smooth muscle was known as the TMM. This was trimmed to 2 cm from the original ‘stomach-end’ and the rest discarded.
# The TMMs were mounted as whole ‘open’ tubes in longitudinal orientation in 5 ml organ baths filled with warm (32° C.) aerated Krebs. Tissues were placed under an initial tension of 750 mg and allowed to equilibrate for 60 minutes. The tissues were re-tensioned twice at 15 minute intervals during the equilibration period. The pump flow rate was set to 2 ml/min during this time.
# Following equilibration, the pump was switched off. The tissues were exposed to 1 μM carbachol and contracted and reached a steady contractile plateau within 15 minutes. Tissues were then subject to 1 μM 5-HT (this was to prime the tissues). The tissues relaxed in response to 5-HT fairly rapidly—within 1 minute. […]
# T1 sequence (Q62758 whole entry): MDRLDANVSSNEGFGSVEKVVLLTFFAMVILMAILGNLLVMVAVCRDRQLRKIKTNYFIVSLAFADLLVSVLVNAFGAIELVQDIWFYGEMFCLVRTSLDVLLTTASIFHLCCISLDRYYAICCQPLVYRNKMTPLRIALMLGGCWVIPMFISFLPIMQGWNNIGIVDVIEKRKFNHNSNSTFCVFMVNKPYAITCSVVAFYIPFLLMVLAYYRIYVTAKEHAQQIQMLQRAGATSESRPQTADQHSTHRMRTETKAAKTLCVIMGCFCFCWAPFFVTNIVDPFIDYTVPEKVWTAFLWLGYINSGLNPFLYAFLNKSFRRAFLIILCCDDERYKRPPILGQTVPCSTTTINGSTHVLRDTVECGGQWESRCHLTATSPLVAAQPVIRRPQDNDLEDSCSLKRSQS
row,SMILES,reversal of 5-HT induced relaxation
1,"O=C(OCCN1CCCCC1)c1c[nH]c2ccccc12 [SB 203,186, 1H-Indole-3-carboxylic acid, 2-(1-piperidinyl)ethyl ester]",reversed 5-HT induced relaxation

# Test system: not given
# Assay: not given
# Conditions: not given
row,SMILES,melting point
1,CCc1cn2c(N)c(Cl)cc(C(=O)NC3CCN(CCCOC)CC3)c2n1,179 °C
2,CCCCN1CCC(CNC(=O)c2ccc(N)n3cc(CCC)nc23)CC1,172 °C
3,CCCc1cn2c(N)c(Cl)cc(C(=O)NC3CCN(CCCOC)CC3)c2n1.Cl,243 °C
4,CCCc1cn2c(N)ccc(C(=O)NC3CCN(CCCOC)CC3)c2n1.Cl,238 °C
5,CCCCN1CCC(CNC(=O)c2ccc(N)n3cc(C(C)C)nc23)CC1,138 °C
6,CCc1cn2c(N)c(Cl)cc(C(=O)NCC3CCN(CC(C)(C)OC)CC3)c2n1,211 °C
7,COC(C)(C)CN1CCC(CNC(=O)c2cc(Cl)c(N)n3cc(C)nc23)CC1,211 °C
8,CCCCN1CCC(CNC(=O)c2cc(Cl)c(N)n3cc(C)nc23)CC1,188 to 191 °C
9,COCCCN1CCC(CNC(=O)c2cc(Cl)c(N)n3cc(C)nc23)CC1,167 °C
10,CCCCN1CCC(CNC(=O)c2cc(Cl)c(NC)n3ccnc23)CC1,148 °C
11,CNc1c(Cl)cc(C(=O)NCC2CCN(CCCOC)CC2)c2nccn12,125 °C

# Other lines, results leading:
row,melting point,SMILES
1,139 to 145 °C,CCCCN1CCC(CNC(=O)c2ccc(N)n3cc(CC)nc23)CC1
2,153 °C,CCc1cn2c(N)c(Cl)cc(C(=O)NCC3CCNCC3)c2n1
3,168 °C,CCCCN1CCC(CNC(=O)c2cc(Cl)c(N)n3cc(C(C)C)nc23)CC1
4,263 °C,CCCCN1CCC(CNC(=O)c2cc(Cl)c(N)n3cc(-c4ccccc4)nc23)CC1.Cl
5,221 °C,CCCCN1CCC(CNC(=O)c2ccc(N)n3cc(-c4ccccc4)nc23)CC1
6,113 °C,CCCCN1CCC(CNC(=O)c2ccc(N)n3cc(Cl)nc23)CC1
7,216 to 219 °C,Cc1cn2c(N)c(Cl)cc(C(=O)NCC3CCN(CC(C)C)CC3)c2n1
8,234 °C,CCc1cn2c(N)c(Cl)cc(C(=O)NCC3CCN(CCC(C)(C)C)CC3)c2n1

# From patent US6624162B2, “Imidazopyridine compounds as 5-HT4 receptor modulators” (Pfizer Inc., priority 2001, dated 2003)
